Results as given in article PMC9499506, “TNF-α and IL-1β Modulate Blood-Brain Barrier Permeability and Decrease Amyloid-β Peptide Efflux in a Human Blood-Brain Barrier Model” (International Journal of Molecular Sciences, 2022).

Assays:
BLECs [1] = experiment: RT-qPCR of junctional protein mRNA in BLECs; format: cell-based, human; conditions: normalized to cyclophilin A, 10 ng·mL^−1, 24 h; for VE-cadherin mRNA level versus control: ΔΔCt
Experimental: (§1) Each condition was studied in triplicate.
BLECs were washed twice with cold RH buffer, then lysed using RLT lysis buffer (Qiagen, Les Ulis, France). The cell lysates were extracted according to the manufacturer’s instructions “Qiagen RNeasy Mini kit”. Briefly, a volume of cell lysates was mixed with a volume of 70% (v/v) ethanol and placed in a column (Rneasy Mini kit, Qiagen, Les Ulis, France). A first centrifugation was performed to adsorb the RNAs to the column. A series of two rinses with buffer RW1 and a centrifugation (10.000 rpm, 30 s) were performed. Samples were treated with DNase in its RDD buffer for 20 min. Then, another succession of rinses (one with buffer RW1 and two with buffer RPE) and centrifugation (10.000 rpm, 30 s) were performed. Finally, water (RNAse Free) was added to the column to elute the RNAs by centrifugation (13.000 rpm, 2 min at 20 °C). The amount of extracted mRNAs was assayed by spectrophotometry (Synergy H1, Biotek, Colmar, France). Absorbances at 280 nm (proteins) and 260 nm (nucleic acids) were performed. The mRNA concentration was determined from the Beer-Lambert law and the mRNA purity of the sample was assessed with the Absorbance 260 nm/Absorbance 280 nm ratio. This ratio must be close to 2.1 to consider the sample to be with high purity. The mRNA samples were then stored at −80 °C.
Reverse transcription (RT) was performed on the samples containing the extracted mRNAs to obtain cDNAs. A total of 250 ng of mRNA was reverse-transcribed using iScriptTM reverse Transcription Supermix 5X (Biorad, Munich, Germany), containing reverse transcriptase, RNAse inhibitors, RNAse H, dNTPs (nucleoside triphosphates), oligonucleotides (dTs) (deoxy-thymine repeats) and random primers (hexamers of dNTPs randomly binding to mRNAs) and MgCl2). To each microtube, a volume of water (RNAse free) was added to obtain a final volume of 20 µL, then a reverse transcription cycle was performed in the thermal cycler (MJ Research): 5 min at 25 °C (hybridization), 30 min at 42 °C (reverse transcription) and 5 min at 85 °C (reverse transcription inactivation). The cDNA samples were then stored at −20 °C. For each reverse transcription and for each condition, an internal control was performed by adding iScriptTM No-RT control Supermix 5X (Biorad, Munich, Germany), a solution without the reverse transcriptase enzyme (NRT), instead of iScriptTM reverse Transcription Supermix 5X.
The qPCR was performed on a 96-well plate where each sample was deposited in triplicate. To perform qPCR, human-specific primer pairs were drawn for each gene of interest (Table 2).
An efficiency test and a melting curve were performed for each pair of primers used using the CFX Manager software (Biorad, Munich, Germany) allowing for the specificity and efficiency of the primers to be checked. A qPCR of the cDNAs obtained by RT-PCR was performed using the specific primers and a SsoFast^TM Evagreen SuperMix (Biorad, Munich, Germany) containing DNA polymerase, its cofactors, dNTPs and Evagreen® (a fluorochrome that binds to DNA during elongation). The amplification was carried out for 40 cycles with a hybridization temperature of 60 °C. The reaction was performed in a CFX96 Real-Time System thermal cycler (Biorad, Munich, Germany). Gene expression levels were assessed using the ΔΔCt method and normalized to a reference gene, cyclophilin A. The data were then plotted as a percentage against the control condition. Two controls were performed per primer pair: an NRT and a primer hybridization control (NTC), where the sample containing the cDNAs is replaced with water.

BLECs [2] = experiment: Western immunoblotting of proinflammatory markers (ICAM-1, VCAM-1, NLRP3) in BLECs; format: cell-based, human; conditions: for protein levels of ICAM-1, VCAM-1 and NLRP3 versus untreated BLECs: 10 ng·mL^−1, 24 h
Experimental: Next, as the inflammatory response of endothelial cells is largely dependent on appropriate upregulation of adhesion molecules, such as intercellular adhesion molecule-1 (ICAM-1) and vascular cell adhesion molecule-1 (VCAM-1), and the inflammasome molecule NOD-like receptor family, pyrin domain containing 3 (NLRP3), we evaluated, by Western immunoblotting, the ability of BLECs to respond to these pro-inflammatory stimuli.
as §1
After 24 h of treatments with or without proinflammatory cytokines, BLECs were washed twice with cold RH buffer and scraped with 70 μL of RIPA 1X lysis buffer (10 mM Tris-Cl (pH 8.0), 1 mM EDTA, 0.5 mM EGTA, 1% Triton X-100, 0.1% sodium deoxycholate, 0.1% SDS, 140 mM NaCl) (Merck Millipore, Burlington, MA, USA) or UT4 lysis buffer (7M Urea, 2M Thiourea, 4% CHAPS), both supplemented with a cocktail of phosphatase and protease inhibitors (1% protease inhibitors cocktail #P8340; 1% phosphatase inhibitors cocktail 1 P2850; 1% phosphatase inhibitors cocktail 2 #P5726; 1% protease inhibitors cocktail #P8340) purchased from Sigma-Aldrich (Lyon, France). Then, a centrifugation at 10,000 rpm for 10 min at 4 °C was achieved to save the supernatant of the lysate. This was later sonicated two times for 5 s on ice. The concentration of the protein lysate was quantified using the Bradford method (#5000006; rad, Munich, Germany). The protein samples were then stored at −20 °C.
20 μg of total protein was mixed with Laemmli 4X (#1610747; Biorad, Munich, Germany) supplemented with β-mercaptoethanol (Sigma-Aldrich, Germany). Depending on the protein target, details of the denaturation and reduction steps of the protein extract are described in Table 3. Then, the protein mixes were electrophoresed using Criterion™ TGX™ (Tris-Glycine eXtended) precast gels (Biorad, Munich, Germany) and subsequently electrotransferred to nitro-cellulose membranes (GE Healthcare, Munich, Germany). Once the previous step was completed, Tris-buffered saline 0.1% Tween 20 (TBST; 20 mM Tris-HCl, pH 8.0, 500 mM NaCl, 0.1% Tween 20) supplemented with 5% skimmed milk was added on membrane to block nonspecific binding sites for 1 h under agitation at RT. Membranes were incubated in the appropriate primary antibodies (as described in Table 3) and incubated at 4 °C overnight, except β-actin (20 min at RT).
The following morning, the membranes were rinsed with TBST three times for 5 min each under agitation, and then incubated with the horseradish peroxidase-conjugated secondary antibody anti-rabbit (1:8000, Dako/Agilent Technologies, Inc., Santa Clara, CA, USA) or secondary antibody anti-mouse (1:5000, Dako/Agilent Technologies, Inc., Santa Clara, CA, USA) for 1 h at RT. […] Quantification of the relative densities of bands was performed with TotalLab TL 100 1D Gel Analysis software (Nonlinear Dynamics, Newcastle, UK). The protein expression normalization was conducted with anti-β-actin. Studies were performed with at least three independent experiments, with at least two Western immunoblottings per experiment.

[3] = both cytokines 10 ng·mL^−1, 24 h, normalized to β-actin

Substance | decrease of claudin-3 mRNA level compared to control (BLECs [1]) | decrease of occludin mRNA level compared to control (BLECs [1]) | decrease of tricellulin mRNA level compared to control (BLECs [1]) | increase of claudin-5 mRNA expression compared to control (BLECs [1]) | VE-cadherin mRNA level versus control (BLECs [1]) | protein levels of ICAM-1, VCAM-1 and NLRP3 versus untreated BLECs (BLECs [2]) | ICAM-1 protein level higher after TNF-α compared to IL-1β (BLECs [2]; [3]) | NLRP3 protein level higher after TNF-α compared to IL-1β (BLECs [2]; [3]) | VCAM-1 protein level higher after TNF-α compared to IL-1β (BLECs [2]; [3]) | decrease of ZO-1 mRNA level compared to control (BLECs [1])
tumor necrosis factor-α [TNF-α] | 61.8% | 66.3% | 68.1% | 139.4% | not significantly different | significantly higher | 22.2% | 478.4% | 230.6% | 
interleukin-1β [IL-1β] | 81.3% | 64.0% | 62.8% | 48.1% | lower | significantly higher |  |  |  | 48.1%
